This is an account of results in patent publication US9175305B2, “Mutant hydroxyphenylpyruvate dioxygenase polypeptides and methods of use” (Syngenta Participations AG, priority 2009, dated 2015).

Usually Kd stands for a measure of binding affinity in units of concentration. Low values mean tighter binding, high ones weaker binding. For orientation: koff means the first-order rate constant of dissociation. In general, kon refers to a measure of how fast the partners come together.

Each structure is given as a SMILES string.

The target in one assay is HPPD SEQ ID NO:17 (Avena sativa, UniProt A0ACD5V6K6, DEL109-109/Q298S). The assay can be described thus: biochemical. The class given is binding. As to the method: (§1) On rates (governed by an association rate constant, kon) for the formation of the enzyme: inhibitor complexes, EI and off rates (governed by a dissociation rate constant, koff) were determined by methods known in the art and essentially as described in Hawkes et al. (2001) Proc. Bright. Crop. Prot. Conf. Weeds, 2:563-568 and in PCT Patent App. Pub. No. WO 02/46387).
HPPD SEQ ID NO:17, sequence (A0ACD5V6K6 entry or part of it DEL109-109/Q298S): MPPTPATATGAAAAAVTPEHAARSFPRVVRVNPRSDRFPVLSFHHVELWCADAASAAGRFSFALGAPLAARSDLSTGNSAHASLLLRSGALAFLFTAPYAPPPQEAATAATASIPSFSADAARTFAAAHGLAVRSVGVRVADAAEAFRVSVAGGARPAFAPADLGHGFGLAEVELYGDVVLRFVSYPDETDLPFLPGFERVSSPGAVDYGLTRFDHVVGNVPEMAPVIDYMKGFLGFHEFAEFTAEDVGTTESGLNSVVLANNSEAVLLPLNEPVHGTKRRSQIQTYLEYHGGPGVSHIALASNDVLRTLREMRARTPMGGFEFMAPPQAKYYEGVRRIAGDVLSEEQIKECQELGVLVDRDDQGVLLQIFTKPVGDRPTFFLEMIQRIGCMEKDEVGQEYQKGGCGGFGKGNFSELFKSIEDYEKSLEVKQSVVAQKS
(§2) For example, on rates were measured by, at zero time, adding ˜60 pmoles HPPD to 50 mM BisTrisPropane buffer at pH7.0 and at 25° C. containing 25 mM Na ascorbate, 4 μg/ml bovine catalase (Sigma, St. Louis, Mo.) and an excess (˜300 pmoles) of ^14C inhibitor in a total assay volume of 425 μl and, at various time points (0-180 s), quenching the radiolabel binding reaction by addition and rapid mixing of 100 μl ‘cold’ 1 mM structure A. Protein samples quenched at different times were then exchanged into 50 mM BisTrisPropane buffer at pH 7.0 containing 0.1M KCl by rapid chromatography down a NAP5 G25 Sephadex column (GE Healthcare Ltd, Buckinghamshire UK) and the amount of ^14C bound to protein fractions quantified in Optiphase scintillant using a Tri-Carb 2900TR scintillation counter (Perkin Elmer, Wellesley, Mass.). The data were fit according to the scheme below in order to derive the value of the apparent second order rate constant, k2, governing the association rate of enzyme and radiolabelled inhibitor. A range of enzyme and inhibitor concentrations were used. […] Further example methods are described in PCT Patent App. Pub. No. WO 02/46387.
(§3) Off rates (k1 in the scheme below) were derived from exchange rate studies where either the test inhibitor, I, or its exchange partner, J were radiolabelled and the data fit according to the scheme below. As noted in Hawkes et al. (2001) Proc. Bright. Crop. Prot. Conf.
(§4) After 30 minutes the exchange reaction was initiated with addition of 100 μl 1 mM ‘cold’ structure A with thorough mixing, and, immediately, 150 μl were withdrawn and loaded onto a NAP5 column, the protein exchanged into 50 mM BisTrisPropane buffer at pH 7.0 containing 0.1M KCl by rapid (<2 min) chromatography down a NAP5 G25 Sephadex column (GE Healthcare Ltd, Buckinghamshire UK) and the amount of ^14C bound to protein measured by Optiphase scintillant using a Tri-Carb 2900TR scintillation counter (Perkin Elmer, Wellesley, Mass.). Further aliquots were removed and measured in the same way at various times over minutes or hours as required in order to determine the exchange kinetics.
(§5) After 30 minutes the reaction vessel was transferred to ice. After a further 10 minutes at ice temperature the exchange reaction was initiated by addition of 100 μl 1 mM Structure A, with thorough mixing, and 150 μl was withdrawn and loaded onto a NAP5 column in a cold room at ˜5-8° C. in order to quantify the amount of radiolabel remaining bound to the protein at various time from the start of exchange at ice temperature.
(§6) Off rates (k1) of HPPD inhibitors that are not available radiolabelled or that present other measurement problems (for example high levels of background non-specific protein-binding which can be measured as radiolabel binding that persists in the presence of high concentrations of ‘cold’ inhibitor) may be measured indirectly. […] Exemplary methods are also described in PCT Patent App. Pub. No. WO 02/46387.

A further assay has as its target HPPD SEQ ID NO:18 (Avena sativa, UniProt A0ACD5V6K6, DEL109-109/I285T). Description: biochemical. The class given is binding. As to the method: as §1, §2, §3, §4, §5, §6
In a further assay the target is HPPD SEQ ID NO:23 (Avena sativa, UniProt A0ACD5V6K6, A242W/DEL109-109). The assay can be described thus: biochemical. In kind it is binding. The following applies: read-out: kon (k2). As to the method:
as §1, §2, §3, §4, §5, §6

The subject of assay [1] is G408A mutant of HPPD SEQ ID NO:14. The assay can be described thus: time course of inhibition of enzyme activity. In kind it is biochemical, Avena sativa. The following applies: inhibitor at 0.15 or 0.6 μM.
Assay [2] concerns soybean event 1 (vector 15764) expressing SEQ ID NO:14. The assay can be described thus: herbicide spray test on soybean events. In kind it is in vivo. The following applies: C 400 g/ha; event 1/SEQ#14; V2 growth stage; 14 DAT; average of n=7. From the text:
(§7) Each data point represents the average damage score from n=7 replicates.
(§8) These events were used to compare the performance of five 17147 events. Four of these, SF, S8, S7 and S3 had not been preselected for tolerance level (other than to confirm resistance, non-chimerical nature and the presence of the gene) while the remaining event, T0, had been preselected as the most resistant out of five 17147 events in a preliminary field test.
(§9) Plants were in 4×4×4 inch plastic pots and grown under a 15/9 hour light regime (daylight supplemented by artificial light in greenhouses) at a minimum night-time temperature of 18° C. and maximum daytime temperature of 27° C. Soil was regular VBRC mix (1:1 mixture of Vero field soil and Fafard Mix II) where Vero field soil is 98% sand and 2% clay. […] Spray volume was 150 L/ha and the damage scores reflect assessments at 14 DAT.

Assay [3] relates to soybean event 2 (vector 15764) expressing SEQ ID NO:14. The assay can be described thus: herbicide spray test on soybean events. In kind it is in vivo. The note with it: C 400 g/ha; event 2/SEQ#14; V2 growth stage; 14 DAT; average of n=7.
Source text: as §7, §8, §9

Assay [4] concerns soybean event S3 (vector 17147) expressing SEQ ID NO:24. Description: herbicide spray test on soybean events. In kind it is in vivo. The following applies: C 400 g/ha; event S3/SEQ#24; V2 growth stage; 14 DAT; average of n=7.
Source text: as §7, §8, §9

Assay [5] concerns soybean event S7 (vector 17147) expressing SEQ ID NO:24. Description: herbicide spray test on soybean events. In kind it is in vivo. The following applies: C 400 g/ha; event S7/SEQ#24; V2 growth stage; 14 DAT; average of n=7.
Source text: as §7, §8, §9

Assay [6] has as its system soybean event S8 (vector 17147) expressing SEQ ID NO:24. Description: herbicide spray test on soybean events. The class given is in vivo. The following applies: C 400 g/ha; event S8/SEQ#24; V2 growth stage; 14 DAT; average of n=7.
Source text: as §7, §8, §9

Assay [7] has as its system soybean event SF (vector 17147) expressing SEQ ID NO:24. The assay can be described thus: herbicide spray test on soybean events. The note with it: C 400 g/ha; event SF/SEQ#24; V2 growth stage; 14 DAT; average of n=7. The class given is in vivo.
Source text: as §7, §8, §9

In assay [8] the test system is soybean event T0 (vector 17147) expressing SEQ ID NO:24. Description: herbicide spray test on soybean events. The class given is in vivo. The following applies: C 400 g/ha; event T0/SEQ#24; V2 growth stage; 14 DAT; average of n=7.
Source text: as §7, §8, §9

HPPD SEQ ID NO:18, sequence (A0ACD5V6K6 entry or part of it DEL109-109/I285T): as the sequence (A0ACD5V6K6 entry or part of it DEL109-109/Q298S) above, with I284T, S297Q counted along it
HPPD SEQ ID NO:23, sequence (A0ACD5V6K6 entry or part of it DEL109-109/A242W): as the sequence (A0ACD5V6K6 entry or part of it DEL109-109/Q298S) above, with A241W, S297Q counted along it

As for `COCCOCc1nc(C(F)(F)F)ccc1C(=O)C1C(=O)C2CCC(C2)C1=O` (stereo not drawn) [Structure C], the values for the Kd at HPPD SEQ ID NO:17 and on HPPD SEQ ID NO:18 were 7.1 nM and 11.9 nM, respectively. In addition, the values for the koff on HPPD SEQ ID NO:17 (read-out: koff (k1)) and at HPPD SEQ ID NO:18 (read-out: koff (k1)) were 6.65e-05 s⁻¹ and 9e-05 s⁻¹, respectively. Moreover, the kon on HPPD SEQ ID NO:17 (read-out: kon (k2)) was determined as 9400 M⁻¹ s⁻¹; on HPPD SEQ ID NO:18 (read-out: kon (k2)), 7500 M⁻¹ s⁻¹; on HPPD SEQ ID NO:23, 7500 M⁻¹ s⁻¹. Also, the “extent of inhibition compared with the control enzyme” value in [1] was “to a lesser extent”. The “% dam.” value in [2] came to 42.1%; in [3] it was 52.9%; in assay [4], 62.1%; in assay [5] it was 45%; in [6], 68.6%; in assay [7] it was 98.6%. The “% dam.” value in assay [8] was found to be 45%.
